Consider 9 molecules from ChEMBL document CHEMBL5143533, “Development of isoquinolinone derivatives as immunoproteasome inhibitors” (Bioorg Med Chem Lett, 2022).

Where a SMILES comes first, the peptide text is derived from it. The star is where a group is joined. Cbz = O=C(OCc1ccccc1)*

Assay [1] can be described thus: Cytotoxicity against human MM1.R cells assessed as reduction in cell vitality incubated for 24 hrs by MTT assay. The format is functional, cell-based. Conditions: MM.1R. (Tetrazolium dyes change colour on reduction, which living cells bring about.)
Assay [2] deals with T1, Proteasome Macropain subunit MB1 (Homo sapiens, UniProt P28074).
T1 sequence (P28074 whole entry): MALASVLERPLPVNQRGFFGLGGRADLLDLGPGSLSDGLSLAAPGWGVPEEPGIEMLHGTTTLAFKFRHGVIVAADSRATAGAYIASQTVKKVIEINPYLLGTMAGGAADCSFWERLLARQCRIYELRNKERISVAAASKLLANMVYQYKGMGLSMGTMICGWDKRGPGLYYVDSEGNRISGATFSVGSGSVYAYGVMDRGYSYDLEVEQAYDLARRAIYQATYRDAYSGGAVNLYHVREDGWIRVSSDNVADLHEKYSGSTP
Description: Inhibition of 20S constitutive proteosome beta5c subunit (unknown origin) assessed as substrate hydrolysis using Suc-Leu-Leu-Val-Tyr-AMC as fluorogenic substrate at 100 uM.

Assay [3] can be described thus: Inhibition of 20S immuno proteosome beta5i subunit (unknown origin) assessed as substrate hydrolysis using Suc-Leu-Leu-Val-Tyr-AMC as fluorogenic substrate at 100 uM. Also noted: species or system Homo sapiens.
Assay [4] can be described thus: Inhibition of 20S immuno proteosome beta5i subunit (unknown origin) assessed as substrate hydrolysis using Z-Leu-Leu-Leu-al as substrate. Details: species or system Homo sapiens.
The species named for assay [5] is Homo sapiens. Description: Reversible inhibition of 20S immuno proteosome beta 5i subunit (unknown origin) assessed as substrate hydrolysis using Suc-Leu-Leu-Val-Tyr-AMC as substrate at 0.25 to 25 uM by fluorescence based assay. The settings on record: dose 0.25-25 µM, time <= 600.0 sec, TDE = time-dependent effect.

For the molecule `CC(C)CCNC(=O)Cn1ccc2ccc(Br)cc2c1=O`, the EC50 (commonly the concentration needed to bring the measured effect to its halfway point) in assay [1] amounted to 17.8 µM.

Regarding `CCCCNC(=O)/C=C/Cn1ccc2cc(OC)c(OC)cc2c1=O`, the Ki – broadly, the dissociation constant of the complex between target and ligand, obtained from inhibition or displacement – in assay [2] came to 19 µM; in assay [3], 49 µM.

As for `COc1cc2ccn(C/C=C/C(=O)Nc3ccccc3)c(=O)c2cc1OC`, the Ki in assay [2] amounted to 49 µM; in assay [3], 50 µM.

As for `COc1cc2ccn(C/C=C/C(=O)NC3CCCCC3)c(=O)c2cc1OC`, the figures for the Ki in assay [2] and in assay [3] were 23 µM and 55 µM, respectively.

Take `COc1cc2ccn(C/C=C/C(=O)NCCc3ccccc3)c(=O)c2cc1OC`: the Ki worked out at 60 µM in assay [2] and 45 µM in assay [3].

With `COc1cc2ccn(C/C=C/C(=O)NCCCc3ccccc3)c(=O)c2cc1OC`, the results for the Ki in assay [2] and in assay [3] were 10.6 µM and 64 µM, respectively.

On to `COc1cc2ccn(C/C=C/C(=O)NCc3ccccc3)c(=O)c2cc1OC`, for which the Ki in assay [3] was 65 µM.

For the molecule `CC(C)C[C@@H](C=O)NC(=O)[C@H](CC(C)C)NC(=O)[C@H](CC(C)C)NC(=O)OCc1ccccc1` [MG-132] (Cbz-Leu-Leu-Leu-aldehyde), the Ki in assay [4] amounted to 0.07 µM.

For the molecule `COc1cc2ccn(C/C=C/C(=O)NCCC(C)C)c(=O)c2cc1OC`, in assay [5], the inhibition result was “Tde”. The figures for the Ki in assay [2] and in assay [3] were 1.18 µM and 1.91 µM, respectively.
